What all share (assay type): biochemical
The target of one assay is T1, S. aureus DNA gyrase (Staphylococcus aureus, UniProt P0A0K8+P20831).
T1 construct: purchased Inspiralis, UK
Put plainly: DNA gyrase supercoiling assay (S. aureus). Particulars: for inhibition at 50 µM: S. aureus, conc. 50 μM, n/a = not active. Put shortly: (§1)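 Relaxed pBR322 (0.5 μg) supercoiled by E. coli (2 U) or S. aureus (1 U) gyrase, 30 min at 37° C; compounds at single 200, 100 or 50 μM, duplicate. Supercoiled band quantified on ethidium-stained agarose gel, expressed as % inhibition vs DMSO control; IC50 by two-parameter exponential decay fit.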

The target in the next assay is T2, E. coli DNA gyrase (Escherichia coli, UniProt P0AES4+P0AES6).
T2 construct: purchased Inspiralis, UK
T2 sequence (P0AES4 whole entry, one chain of several): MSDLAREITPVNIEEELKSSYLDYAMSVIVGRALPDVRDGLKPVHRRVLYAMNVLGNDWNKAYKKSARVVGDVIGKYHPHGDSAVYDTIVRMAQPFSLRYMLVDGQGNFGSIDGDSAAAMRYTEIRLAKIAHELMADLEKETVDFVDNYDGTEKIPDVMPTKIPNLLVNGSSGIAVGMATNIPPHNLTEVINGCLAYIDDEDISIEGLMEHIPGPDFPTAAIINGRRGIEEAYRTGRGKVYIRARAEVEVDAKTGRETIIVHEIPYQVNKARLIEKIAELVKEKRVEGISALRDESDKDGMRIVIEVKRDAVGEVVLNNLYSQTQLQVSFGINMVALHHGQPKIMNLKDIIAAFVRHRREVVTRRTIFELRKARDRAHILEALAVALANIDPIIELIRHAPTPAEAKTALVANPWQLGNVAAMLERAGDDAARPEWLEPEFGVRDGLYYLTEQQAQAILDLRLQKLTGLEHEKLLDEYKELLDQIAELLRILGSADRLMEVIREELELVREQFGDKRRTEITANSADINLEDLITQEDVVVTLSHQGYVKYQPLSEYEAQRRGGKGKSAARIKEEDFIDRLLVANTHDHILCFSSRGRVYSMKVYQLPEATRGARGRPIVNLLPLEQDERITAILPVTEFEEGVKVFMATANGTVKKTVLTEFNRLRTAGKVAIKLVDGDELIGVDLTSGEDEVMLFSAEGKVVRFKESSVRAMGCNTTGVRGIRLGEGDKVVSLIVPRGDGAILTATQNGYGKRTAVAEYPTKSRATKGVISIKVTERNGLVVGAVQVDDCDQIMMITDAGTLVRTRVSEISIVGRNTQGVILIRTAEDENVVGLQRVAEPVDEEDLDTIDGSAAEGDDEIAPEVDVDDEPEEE
Put plainly: DNA gyrase supercoiling assay (E. coli). To be noted: for inhibition at 50 µM: E. coli, conc. 50 μM, n/a = not active. The procedure, abridged:
as §1

Another assay deals with T3, E. coli Topoisomerase IV (Escherichia coli, UniProt P0AFI2+P20083).
T3 construct: purchased Inspiralis, UK
T3 sequence (P20083 whole entry): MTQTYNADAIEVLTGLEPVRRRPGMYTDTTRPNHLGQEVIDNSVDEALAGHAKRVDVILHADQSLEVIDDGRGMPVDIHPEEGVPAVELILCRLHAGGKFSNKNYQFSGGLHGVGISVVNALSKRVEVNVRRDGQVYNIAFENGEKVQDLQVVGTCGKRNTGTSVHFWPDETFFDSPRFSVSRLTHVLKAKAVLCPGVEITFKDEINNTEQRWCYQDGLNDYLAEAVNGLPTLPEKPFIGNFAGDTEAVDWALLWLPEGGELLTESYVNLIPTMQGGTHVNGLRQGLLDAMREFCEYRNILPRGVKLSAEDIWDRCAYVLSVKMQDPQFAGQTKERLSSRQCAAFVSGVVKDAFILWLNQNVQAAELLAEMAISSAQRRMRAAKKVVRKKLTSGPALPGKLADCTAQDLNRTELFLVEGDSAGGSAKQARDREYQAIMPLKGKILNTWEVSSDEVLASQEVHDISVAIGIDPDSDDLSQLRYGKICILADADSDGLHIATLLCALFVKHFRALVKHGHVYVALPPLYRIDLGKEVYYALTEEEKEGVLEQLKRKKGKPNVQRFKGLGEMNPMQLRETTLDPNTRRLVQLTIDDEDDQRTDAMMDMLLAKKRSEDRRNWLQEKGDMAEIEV
T3 sequence (P0AFI2 whole entry): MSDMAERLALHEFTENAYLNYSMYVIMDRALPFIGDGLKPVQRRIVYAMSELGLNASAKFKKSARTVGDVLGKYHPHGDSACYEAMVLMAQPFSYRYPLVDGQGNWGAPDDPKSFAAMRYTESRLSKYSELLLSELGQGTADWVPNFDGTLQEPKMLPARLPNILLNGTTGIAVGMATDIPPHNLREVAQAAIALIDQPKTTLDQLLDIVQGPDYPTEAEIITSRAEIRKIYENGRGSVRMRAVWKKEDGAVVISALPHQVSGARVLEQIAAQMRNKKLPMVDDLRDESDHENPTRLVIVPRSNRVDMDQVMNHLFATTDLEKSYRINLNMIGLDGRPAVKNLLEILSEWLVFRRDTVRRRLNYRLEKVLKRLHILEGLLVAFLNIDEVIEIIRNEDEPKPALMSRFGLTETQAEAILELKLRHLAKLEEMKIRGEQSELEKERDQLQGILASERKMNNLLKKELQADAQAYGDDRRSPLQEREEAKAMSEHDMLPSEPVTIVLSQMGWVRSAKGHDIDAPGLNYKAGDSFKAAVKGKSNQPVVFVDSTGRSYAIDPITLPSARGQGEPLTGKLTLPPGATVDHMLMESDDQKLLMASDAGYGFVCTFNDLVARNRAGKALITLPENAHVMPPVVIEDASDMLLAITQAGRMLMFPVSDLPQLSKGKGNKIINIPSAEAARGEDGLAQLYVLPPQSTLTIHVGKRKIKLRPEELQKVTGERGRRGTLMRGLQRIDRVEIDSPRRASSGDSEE
Put plainly: Topoisomerase IV decatenation assay (E. coli). Particulars: for inhibition at 50 µM: E. coli, conc. 50 μM, n/a = not active, read-out: % inhibition Topo IV. Put shortly:
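Topo IV decatenation of kDNA (200 ng) with 0.5 U enzyme in HEPES-KOH pH 7.6 buffer containing 1 mM ATP and Mg acetate, 30 min at 37 °C. Single-concentration screen (200, 100 or 50 μM) in duplicate. Decatenated minicircles resolved on agarose, ethidium-stained band intensity expressed as % inhibition versus vehicle; IC50 from exponential-decay curve fit.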

For assay [1], the target named is T4, S. aureus Topoisomerase IV (Staphylococcus aureus, UniProt P0C1S7+P0C1U9).
T4 construct: purchased Inspiralis, UK
Put plainly: Topoisomerase IV decatenation assay (S. aureus). Particulars: for inhibition at 50 µM: read-out: % inhibition Topo IV. The protocol:
The above compounds were tested for the inhibition of the enzyme DNA gyrase in a gyrase supercoiling assay and for the inhibition of the enzyme topoisomerase IV in a decatenation assay, in both Gram positive and Gram negative bacteria, according to the following methods.
Both the assays were carried out according to a set-up method modified from the article to Blanche F, et al. “Differential Behaviors of Staphylococcus aureus and Escherichia coli Type II DNA Topoisomerases”, Antimicrob. Agents Chemother., 1996, Vol. 40, No. 12 p. 2714-2720.
The compounds were screened at single concentration (200, 100 or 50 μM), in duplicate.
S. aureus and E. coli Topoisomerase IV decatenation kits (Inspiralis, UK) were used. A master mix with a total volume sufficient for the number of reactions to perform was prepared with the following reagents: 5× assay buffer (50 mM HEPES-KOH (pH 7.6), 100 mM potassium glutamate, 10 mM magnesium acetate, 10 mM DTT, 1 mM ATP, 50 μg/ml albumin), kDNA substrate (200 ng/reaction), RNase-DNase free water. Aliquots of this mix were dispensed in each tube, then 10× compound stock solutions or vehicle control (DMSO), were added in each reaction tube.
Reaction was started with Topoisomerase IV enzyme (0.5 U/reaction) addition.
A sample added with an equal volume of dilution buffer was used as negative control (without enzyme).
The reaction tubes were gentle vortexed and incubated 30 minutes at 37° C. Each reaction was stopped by adding 30 μl of Stop Buffer and 30 μl of chloroform/isoamyl alcohol (24/1), briefly vortexed for 5-10 seconds and centrifuged at 20000×g for 2 minutes. Samples taken from the upper phase were loaded into 1% agarose gel and subjected to electrophoresis for 1 hour at 80V constant voltage in TAE (40 mM Tris-acetate, 2 mM EDTA).
Data acquisition and analysis. Due to the high molecular mass, kDNA could not enter an agarose gel under normal electrophoresis conditions, but remained in the wells. In the presence of Topo IV topoisomerase mini-circles (2.5 Kb) were released from kDNA by decatenation and were quickly and easily resolved in the gel at relatively high voltages.
Bands were visualized by ethidium bromide staining (dil 1:20000) for 30 minutes followed by destaining in distilled water for 10 minutes.
For single concentration screening assay, in order to evaluate the compounds activity on the enzymes, the bands of decatenated DNAs in the gel were photographed by a digital imaging system ImageQuant LAS 4000 (GE Healthcare) according to manufacturer's instructions.
The fluorescent intensity of each band was analyzed by ImageQuant TL software and it was expressed as volume (volume of the uncalibrated quantity of material in the image feature after subtraction of the background intensity by using rolling ball method).
Each band intensity was compared, as percentage, to vehicle sample band intensity, which served as positive control, on the same gel.
Inhibitory activity was expressed as percent of inhibition versus the positive control.
The supercoiled or decatenated DNA bands obtained as described in Example 1 were analysed as follows.
Bands were analyzed by gel documentation equipment (Syngene, Cambridge, UK) and quantitated using Syngene Gene Tools software. Raw gel data (fluorescent band volumes) collected from Syngene, GeneTools gel analysis software were converted to a percentage of the 100% control (the fully supercoiled or decatenated DNA band). […] The IC50 data were calculated by using the global curve fit non-linear regression tool by selecting the Single, 2 Parameter fit function from the Exponential Decay equation category.

Setting [2] is: S. aureus, conc. 50 μM, n/a = not active.
The mark [3] stands for this setting: S. aureus, concentration-response curve, eight half-log concentrations 0.1 to 300 μM, read-out: IC50 Topo IV.

We go through twelve compounds from patent US10221144B2, “Antibacterial compounds having broad spectrum of activity” (priority 2014, dated 2019).

The structures appear in SMILES notation. Counter-ions that a name gives are not always drawn. Like-named read-outs stand apart in the source and are kept apart here.

T1 sequence (P0A0K8 whole entry): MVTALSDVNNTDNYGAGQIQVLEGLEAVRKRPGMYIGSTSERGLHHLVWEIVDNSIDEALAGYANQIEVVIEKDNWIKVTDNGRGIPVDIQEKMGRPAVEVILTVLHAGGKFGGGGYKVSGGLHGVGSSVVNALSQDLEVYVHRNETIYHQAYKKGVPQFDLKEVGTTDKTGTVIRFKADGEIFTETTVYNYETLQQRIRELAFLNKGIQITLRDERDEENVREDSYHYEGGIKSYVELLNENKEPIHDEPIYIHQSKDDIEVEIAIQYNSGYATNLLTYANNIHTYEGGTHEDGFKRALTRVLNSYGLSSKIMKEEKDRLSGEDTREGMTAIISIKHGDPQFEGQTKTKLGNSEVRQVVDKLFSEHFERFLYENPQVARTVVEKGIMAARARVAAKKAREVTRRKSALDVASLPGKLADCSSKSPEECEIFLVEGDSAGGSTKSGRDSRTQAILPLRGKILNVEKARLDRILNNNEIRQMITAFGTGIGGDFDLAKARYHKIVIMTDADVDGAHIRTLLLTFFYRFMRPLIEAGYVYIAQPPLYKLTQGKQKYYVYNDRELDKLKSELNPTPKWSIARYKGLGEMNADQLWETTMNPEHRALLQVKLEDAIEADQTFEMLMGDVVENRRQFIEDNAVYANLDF
T1 sequence (P20831 whole entry): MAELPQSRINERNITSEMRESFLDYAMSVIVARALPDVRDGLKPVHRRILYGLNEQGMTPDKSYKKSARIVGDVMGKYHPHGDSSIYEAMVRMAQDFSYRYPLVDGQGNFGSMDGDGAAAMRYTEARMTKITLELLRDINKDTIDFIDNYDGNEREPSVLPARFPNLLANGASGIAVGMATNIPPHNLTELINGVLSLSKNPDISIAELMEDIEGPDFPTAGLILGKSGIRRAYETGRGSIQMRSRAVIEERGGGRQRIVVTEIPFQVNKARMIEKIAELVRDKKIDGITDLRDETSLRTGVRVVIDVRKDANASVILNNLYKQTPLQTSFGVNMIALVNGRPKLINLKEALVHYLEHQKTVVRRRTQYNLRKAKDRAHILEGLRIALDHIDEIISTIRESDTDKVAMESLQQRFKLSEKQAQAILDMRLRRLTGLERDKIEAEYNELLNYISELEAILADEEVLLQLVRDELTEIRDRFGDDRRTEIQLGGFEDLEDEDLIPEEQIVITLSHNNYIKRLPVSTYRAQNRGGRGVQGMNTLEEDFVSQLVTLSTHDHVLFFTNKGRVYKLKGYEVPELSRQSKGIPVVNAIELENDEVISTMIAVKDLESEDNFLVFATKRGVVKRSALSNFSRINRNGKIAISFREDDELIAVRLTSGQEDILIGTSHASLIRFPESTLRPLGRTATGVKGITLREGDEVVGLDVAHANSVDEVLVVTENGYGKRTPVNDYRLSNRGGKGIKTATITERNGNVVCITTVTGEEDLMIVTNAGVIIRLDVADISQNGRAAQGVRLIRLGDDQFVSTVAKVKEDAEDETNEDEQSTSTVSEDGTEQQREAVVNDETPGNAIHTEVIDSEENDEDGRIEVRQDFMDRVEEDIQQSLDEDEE

`O=c1nc(NCC(O)CN2CCN(c3nc(F)cc4ccc(OC(F)(F)F)cc34)CC2)c2cc(F)ccc2o1` (stereo not shown) [Compound 155, 6-fluoro-4-[(3-{4-[3-fluoro-7-(trifluoromethoxy)isoquinolin-1-yl]piperazin-1-yl}-2-hydroxypropyl)amino]-2H-1,3-benzoxazin-2-one]: the IC50 worked out at 8740 nM on S. aureus DNA gyrase, 6310 nM on E. coli DNA gyrase and 7210 nM in assay [1] (setting [3]). The inhibition at 50 µM against S. aureus DNA gyrase amounted to 50%; at E. coli DNA gyrase, 60%; at E. coli Topoisomerase IV, 0%; in assay [1] (setting [2]), 50%.

Regarding `O=c1nc(NCC(O)CN2CCN(c3nccc4nccnc34)CC2)c2cc(F)ccc2o1` (stereo not shown) [Compound 156, 6-fluoro-4-((2-hydroxy-3-(4-(pyrido[3,4-b]pyrazin-5-yl)piperazin-1-yl)propyl)amino)-2H-benzo[e][1,3]oxazin-2-one], the IC50 at S. aureus DNA gyrase amounted to 1760 nM; against E. coli DNA gyrase it was 2740 nM; at E. coli Topoisomerase IV, 640 nM; in assay [1] (setting [3]), 1250 nM. Besides, the inhibition at 50 µM was 89% on S. aureus DNA gyrase, 78% on E. coli DNA gyrase, 91% on E. coli Topoisomerase IV and 86% in assay [1] (setting [2]).

For `NC(CN1CCN(c2nccc3ccc(F)cc23)CC1)c1nc2c(=O)oc3ccccc3c2[nH]1` (stereo not shown) [Compound 158, 2-{1-amino-2-[4-(7-fluoroisoquinolin-1-yl)piperazin-1-yl]ethyl}[1]benzopyrano[3,4-d]imidazol-4(1H)-one hydrochloride], the IC50 against S. aureus DNA gyrase was determined as 860 nM; against E. coli DNA gyrase, 1860 nM; on E. coli Topoisomerase IV it was 920 nM; in assay [1] (setting [3]) it was 2130 nM. The inhibition at 50 µM against S. aureus DNA gyrase worked out at 100%; on E. coli DNA gyrase, 95%; on E. coli Topoisomerase IV, 97%; in assay [1] it was 100%.

On to `O=CNC(CN1CCN(c2nccc3ccc(F)cc23)CC1)c1nc2c(=O)oc3ccccc3c2[nH]1` (stereo not shown) [Compound 159, N-{2-[4-(7-fluoroisoquinolin-1-yl)piperazin-1-yl]-1-(4-oxo-1,4-dihydro[1]benzopyrano[3,4-d]imidazol-2-yl)ethyl}formamide hydrochloride], for which the IC50 against S. aureus DNA gyrase was determined as 510 nM; against E. coli DNA gyrase it was 1650 nM; against E. coli Topoisomerase IV, 1040 nM; in assay [1] (setting [3]), 1090 nM. Further, the inhibition at 50 µM against S. aureus DNA gyrase stood at 100%; against E. coli DNA gyrase, 94%; on E. coli Topoisomerase IV, 98%; in assay [1] it was 100%.

On to `O=c1nc(NCC(O)CN2CCN(c3nccc4ncc(F)cc34)CC2)c2cc(F)ccc2o1` (stereo not shown) [Compound 162, 6-fluoro-4-({3-[4-(3-fluoro-1,6-naphthyridin-5-yl)piperazin-1-yl]-2-hydroxypropyl}amino)-2H-1,3-benzoxazin-2-one], for which the IC50 was determined as 880 nM on S. aureus DNA gyrase, 4850 nM on E. coli DNA gyrase, 950 nM against E. coli Topoisomerase IV and 310 nM in assay [1] (setting [3]). The inhibition at 50 µM was found to be 100% against S. aureus DNA gyrase, 95% against E. coli DNA gyrase, 100% on E. coli Topoisomerase IV and 100% in assay [1] (setting [2]).

With `O=c1nc(NCC(O)CN2CCN(c3nccc4ncc(C(F)(F)F)cc34)CC2)c2cc(F)ccc2o1` (stereo not shown) [Compound 163, 6-fluoro-4-[(2-hydroxy-3-{4-[3-(trifluoromethyl)-1,6-naphthyridin-5-yl]piperazin-1-yl}propyl)amino]-2H-1,3-benzoxazin-2-one], the 50% inhibitory concentration (IC50) at S. aureus DNA gyrase stood at 82700 nM; at E. coli DNA gyrase, 4400 nM; at E. coli Topoisomerase IV it was 9890 nM; in assay [1] (setting [3]), 1220 nM. For the same compound, the inhibition at 50 µM at S. aureus DNA gyrase stood at 30%; at E. coli DNA gyrase it was 80%; at E. coli Topoisomerase IV, 90%; in assay [1] (setting [2]) it was 100%.

Consider `O=c1cc(NCC(O)CN2CCN(c3nccc4ncccc34)CC2)c2cc(F)ccc2o1` (stereo not shown) [Compound 166, 6-fluoro-4-({2-hydroxy-3-[4-(1,6-naphthyridin-5-yl)piperazin-1-yl]propyl}amino)-2H-1-benzopyran-2-one], for which the half-maximal inhibitory concentration (IC50) came to 1130 nM against S. aureus DNA gyrase, 150 nM against E. coli DNA gyrase, 200 nM at E. coli Topoisomerase IV and 300 nM in assay [1] (setting [3]). For the same compound, the inhibition at 50 µM at S. aureus DNA gyrase turned out to be 70%; on E. coli DNA gyrase, 80%; at E. coli Topoisomerase IV, 90%; in assay [1] it was 97%.

In the case of `COC1CN(c2nccc3ccc(F)cc23)CCC1NCc1cc2c(=O)oc3ccccc3c2[nH]1` (stereo not shown) [Compound 171, 2-({[1-(7-fluoroisoquinolin-1-yl)-3-methoxypiperidin-4-yl]amino}methyl)[1]benzopyrano[4,3-b]pyrrol-4(1H)-one], the inhibition at 50 µM worked out at 100% against S. aureus DNA gyrase, 93% on E. coli DNA gyrase, 97% at E. coli Topoisomerase IV and 72% in assay [1] (setting [2]).

On to `O=c1oc2ccccc2c2[nH]c(CNC3CCN(c4nccc5ccc(F)cc45)CC3F)cc12` (stereo not shown) [Compound 172, 2-({[3-fluoro-1-(7-fluoroisoquinolin-1-yl)piperidin-4-yl]amino}methyl)[1]benzopyrano[4,3-b]pyrrol-4(1H)-one], for which the inhibition at 50 µM against S. aureus DNA gyrase was determined as 64%; against E. coli DNA gyrase, 94%; at E. coli Topoisomerase IV, 89%; in assay [1] (setting [2]), 39%.

Consider `CC1CN(c2nccc3ccc(F)cc23)CCC1NCc1cc2c(=O)oc3ccccc3c2[nH]1` (stereo not shown) [Compound 177, 2-({[1-(7-fluoroisoquinolin-1-yl)-3-methylpiperidin-4-yl]amino}methyl) [1]benzopyrano[4,3-b]pyrrol-4(1H)-one], for which the inhibition at 50 µM against S. aureus DNA gyrase was 98%; on E. coli DNA gyrase it was 77%; on E. coli Topoisomerase IV, 74%; in assay [1] (setting [2]), 14%.

Consider `O=c1oc2ccccc2c2[nH]c(CNC3CCN(c4nccc5ccc(F)cc45)CC3O)cc12` (stereo not shown) [Compound 186, 2-({[1-(7-fluoroisoquinolin-1-yl)-3-hydroxypiperidin-4-yl]amino}methyl)[1]benzopyrano[4,3-b]pyrrol-4(1H)-one], for which the inhibition at 50 µM on S. aureus DNA gyrase came to 100%; against E. coli DNA gyrase it was 70%; at E. coli Topoisomerase IV, 54%; in assay [1] (setting [2]) it was 87%.

As for `O=c1oc2ccc(F)cc2c2cc(CNC3CCN(c4nccc5ncccc45)CC3)[nH]c12` [Compound 187, 8-fluoro-2-({[1-(1,6-naphthyridin-5-yl)piperidin-4-yl]amino}methyl)[1]benzopyrano[3,4-b]pyrrol-4(3H)-one], the IC50 against S. aureus DNA gyrase was found to be 160 nM; on E. coli DNA gyrase, 190 nM; at E. coli Topoisomerase IV it was 1570 nM; in assay [1], 1370 nM. The inhibition at 50 µM came out at 95% against S. aureus DNA gyrase, 79% against E. coli DNA gyrase, 82% on E. coli Topoisomerase IV and 95% in assay [1] (setting [2]).
